US20230190740A1, “AN NK-1 RECEPTOR ANTAGONIST FOR TREATING A DISEASE SELECTING FROM SEPSIS, SEPTIC SHOCK, ACUTE RESPIRATORY DISTRESS SYNDROME (ARDS) OR MULTIPLE ORGAN D[…] (MODS)” (NeRRe Therapeutics Limited, priority 2020, published 2023)

What was measured:
[1] = test system: pulmonary inflammation induced by intranasal lipopolysaccharide (LPS) challenge; assay: LPS induced neutrophilia model of lung inflammation and injury (mouse model of ARDS): inflammatory cell counts in BALF; assay type: in vivo, female C57BL6J mice; set-up: key to WBC cell counts, 4 hr Statistical significance / Neutrophils cell counts, 4 hr Statistical significance: * p < 0.05; ** p < 0.01; *** p < 0.001; **** p < 0.0001.; not significant (NS)
Protocol: (§1) Orvepitant was evaluated in the established mouse model of ARDS; the LPS induced neutrophilia model of lung inflammation and injury.
(§2) The effects of vehicle control or orvepitant (250 mg/kg of orvepitant maleate anhydrous crystalline form [Form 1]), dosed orally 1 hour prior to challenge, on pulmonary inflammation induced by a single intranasal challenge dose (10 ug/kg) of either proinflammatory lipopolysaccharide (LPS), or phosphate-buffered saline (PBS) control, was investigated in female C57BL6J mice. Animals were euthanised at either 4 or 24 hours, and inflammatory cell counts and mediators were assayed in bronchoalveolar lavage (BALF) from all animals.
(§3) Key: Bronchoalveolar lavage fluid (BALF); intranasal (in); lipopolysaccharide (LPS); number of female C57BL6J mice/group (n); per os (po); phosphate buffered saline (PBS).

[2] = test system: proinflammatory mediators in BALF after intranasal lipopolysaccharide (LPS) challenge; assay: LPS induced neutrophilia model of lung inflammation and injury (mouse model of ARDS): proinflammatory mediators in BALF; assay type: in vivo, female C57BL6J mice; set-up: key to IL-1β, 4 hr Statistical significance / TNFα, 24 hr Statistical significance / VEGF-A, 4 hr Statistical significance / MCP-1, 4 hr Statistical significance: * p < 0.05; ** p < 0.01; *** p < 0.001; **** p < 0.0001.; not significant (NS)
Protocol: as §1, §2, §3

[3] = 250 mg/kg per os 1 hour prior to LPS intranasal challenge, BALF at 4 hr, vs vehicle/LPS group
[4] = 250 mg/kg per os 1 hour prior to LPS intranasal challenge, BALF at 24 hr, vs vehicle/LPS group
[5] = 250 mg/kg per os, BALF at 4 hr after LPS intranasal challenge, vs vehicle/LPS group
[6] = 250 mg/kg per os, BALF at 24 hr after LPS intranasal challenge, vs vehicle/LPS group

**Q.** What does the source list for `Cc1cc(F)ccc1[C@H]1C[C@@H](N2CCN3C(=O)CC[C@H]3C2)CCN1C(=O)N(C)[C@H](C)c1cc(C(F)(F)F)cc(C(F)(F)F)c1` [orvepitant, 2-(R)-(4-Fluoro-2-methyl-phenyl)-4-(S)-((8aS)-6-oxo-hexahydro-pyrrolo[1,2-a]-pyrazin-2-yl)-piperidine-1-carboxylic acid [1-(R)-(3,5-bis-trifluoromethyl-phenyl)-ethyl]-methylamide]?
**A.** effect on inflammatory cell migration ([1]; 250 mg/kg orally, ARDS LPS induced neutrophilia model): ameliorated; Neutrophils cell counts, 4 hr Statistical significance [1, 3]: NS; WBC cell counts, 4 hr Statistical significance [1, 3]: NS; Neutrophils cell counts, 24 hr Statistical significance [1, 4]: *** (*** p < 0.001); WBC cell counts, 24 hr Statistical significance [1, 4]: *** (*** p < 0.001); effect on range of proinflammatory mediators measured in the BALF ([2]; 250 mg/kg orally, at both 4 and 24 hours, vs vehicle treated LPS-challenged animals): reduced; IL17A, 4 hr % mean reduction [2, 5]: (36%); IL17A, 4 hr Statistical significance [2, 5]: **** (**** p < 0.0001.); IL-1β, 4 hr Statistical significance [2, 5]: NS; IL-6, 4 hr % mean reduction [2, 5]: (44%); IL-6, 4 hr Statistical significance [2, 5]: ** (** p < 0.01); MCP-1, 4 hr Statistical significance [2, 5]: NS; TNFα, 4 hr % mean reduction [2, 5]: (26%); TNFα, 4 hr Statistical significance [2, 5]: * (* p < 0.05); VEGF-A, 4 hr Statistical significance [2, 5]: NS; IL17A, 24 hr % mean reduction [2, 6]: (47%); IL17A, 24 hr Statistical significance [2, 6]: * (* p < 0.05); IL-1β, 24 hr % mean reduction [2, 6]: (33%); IL-6, 24 hr % mean reduction [2, 6]: (39%); MCP-1, 24 hr % mean reduction [2, 6]: (56%); MCP-1, 24 hr Statistical significance [2, 6]: ** (** p < 0.01); TGF-β1, 24 hr % mean reduction [2, 6]: (62%); TGF-β1, 24 hr Statistical significance [2, 6]: *** (*** p < 0.001); TNFα, 24 hr Statistical significance [2, 6]: NS; VEGF-A, 24 hr % mean reduction [2, 6]: (32%)
